Source: patent US8058475B2, “Substituted cyclohexylmethyl compounds” (Gruenenthal GmbH, priority 2005, dated 2011)
Counter-ions that a name gives are not always drawn. Like-named read-outs stand apart in the source and are kept apart here.

Assays:
[1] = biological target: T1, Serotonin (5HT) reuptake (Rattus norvegicus, UniProt P31652); assay: Serotonin (5HT) reuptake inhibition in rat brain synaptosomes (P2 fraction); assay type: biochemical; settings: for inhibition at 10 µM: read-out: Serotonin reuptake, % inhibition [10 μM]
T1 construct: synaptosomes are freshly isolated from areas of rat brain; from tissue; host or cells: rat brain synaptosomes (P2 fraction)
Source text: (§1) Noradrenaline (NA) and Serotonin (5HT) Reuptake Inhibition
(§2) In order to be able to carry out these studies in vitro, synaptosomes are freshly isolated from areas of rat brain. A so-called “P2” fraction prepared by the method of Gray and Whittaker (E. G. Gray and V. P. Whittaker (1962) J. Anat. 76, 79-88) is used in each case. For the NA uptake, these vesicular particles are isolated from the hypothalamus of male rat brains.
(§3) A detailed description of the method will be found in the literature (M. Ch. Frink, H. H. Hennies, W. Englberger, M. Haurand and B. Wilffert (1996) Arzneim.-Forsch./Drug Res. 46 (III), 11, 1029-1036).

[2] = biological target: T2, Noradrenaline (NA) reuptake (Rattus norvegicus, UniProt Q63380); assay: Noradrenaline (NA) reuptake inhibition in rat brain synaptosomes (hypothalamus, P2 fraction); assay type: biochemical; settings: for inhibition at 10 µM: read-out: NA reuptake, % inhibition [10 μM]
T2 construct: synaptosomes are freshly isolated from areas of rat brain; from tissue; host or cells: rat hypothalamus synaptosomes (P2 fraction)
Source text: as §1, §2, §3

[3] = biological target: human μ-opiate receptor (Homo sapiens, UniProt P35372); assay: Affinity for the human μ-opiate receptor ([3H]-naloxone displacement, SPA, CHO-K1 membrane preparation); assay type: binding; settings: for inhibition at 1 µM: read-out: μ-Opioid receptor, % inhibition [1 μM]; for Ki: read-out: μ-Opioid receptor, Ki
[4] = 1 μM test substance, inhibition of specific [3H]-naloxone binding

Chain of human μ-opiate receptor (P35372 whole entry): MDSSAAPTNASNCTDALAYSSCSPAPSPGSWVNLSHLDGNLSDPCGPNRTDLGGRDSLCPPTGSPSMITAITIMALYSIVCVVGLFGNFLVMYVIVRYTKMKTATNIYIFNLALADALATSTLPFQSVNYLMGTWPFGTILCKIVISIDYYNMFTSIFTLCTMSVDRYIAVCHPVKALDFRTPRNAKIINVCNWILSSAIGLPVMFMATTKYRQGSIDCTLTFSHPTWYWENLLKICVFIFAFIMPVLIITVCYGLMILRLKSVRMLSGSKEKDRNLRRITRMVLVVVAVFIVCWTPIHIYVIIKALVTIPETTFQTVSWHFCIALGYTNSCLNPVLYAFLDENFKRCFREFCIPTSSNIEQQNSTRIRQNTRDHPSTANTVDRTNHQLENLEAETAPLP
T2 sequence (Q63380 1-617): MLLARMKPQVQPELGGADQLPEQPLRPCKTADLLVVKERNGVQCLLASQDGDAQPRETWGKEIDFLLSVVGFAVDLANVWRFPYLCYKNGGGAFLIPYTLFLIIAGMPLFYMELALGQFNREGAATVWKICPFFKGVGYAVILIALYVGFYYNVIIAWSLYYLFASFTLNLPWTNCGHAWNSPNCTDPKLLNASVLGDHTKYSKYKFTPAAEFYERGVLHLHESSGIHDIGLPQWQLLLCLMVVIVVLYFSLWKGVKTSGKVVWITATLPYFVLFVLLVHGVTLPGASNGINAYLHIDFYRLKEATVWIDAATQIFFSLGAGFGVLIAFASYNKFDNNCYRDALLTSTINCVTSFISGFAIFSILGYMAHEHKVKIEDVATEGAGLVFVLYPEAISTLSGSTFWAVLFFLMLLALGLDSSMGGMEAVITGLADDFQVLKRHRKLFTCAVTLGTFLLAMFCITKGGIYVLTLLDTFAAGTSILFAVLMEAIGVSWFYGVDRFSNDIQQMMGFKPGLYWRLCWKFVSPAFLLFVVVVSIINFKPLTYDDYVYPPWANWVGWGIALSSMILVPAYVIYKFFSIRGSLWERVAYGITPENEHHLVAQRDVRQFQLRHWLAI
T1 sequence (P31652 whole entry): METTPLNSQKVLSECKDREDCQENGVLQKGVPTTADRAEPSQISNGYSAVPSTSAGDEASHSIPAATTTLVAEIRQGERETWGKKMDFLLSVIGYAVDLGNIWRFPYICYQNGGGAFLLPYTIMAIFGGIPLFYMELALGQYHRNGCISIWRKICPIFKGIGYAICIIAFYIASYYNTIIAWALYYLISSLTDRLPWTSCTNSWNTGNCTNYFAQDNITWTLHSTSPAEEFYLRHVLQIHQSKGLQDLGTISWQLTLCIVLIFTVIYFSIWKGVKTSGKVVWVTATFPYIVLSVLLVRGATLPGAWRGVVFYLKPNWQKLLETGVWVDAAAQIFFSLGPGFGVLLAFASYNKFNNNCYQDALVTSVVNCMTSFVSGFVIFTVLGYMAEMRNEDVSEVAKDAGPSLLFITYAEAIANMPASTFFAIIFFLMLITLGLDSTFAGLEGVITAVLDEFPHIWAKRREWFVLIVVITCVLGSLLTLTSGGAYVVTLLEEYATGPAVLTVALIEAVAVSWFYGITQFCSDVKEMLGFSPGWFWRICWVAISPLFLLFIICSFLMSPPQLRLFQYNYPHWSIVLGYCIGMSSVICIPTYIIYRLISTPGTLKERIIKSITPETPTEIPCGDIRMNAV

In the case of `CN(C)C(c1ccc(F)cc1)C1CCC(CCN)CC1` (stereo not drawn) [compound 51, 2-{4-[dimethylamino-(4-fluorophenyl)-methyl]-cyclohexyl}-ethylamine], the inhibition at 10 µM [1] is reported as 97% and the inhibition at 10 µM [2] is reported as 98%.

Molecule `CN(C)C(c1cccc(F)c1)C1CCC(CC=O)CC1` (stereo not drawn) [compound 52, {4-[Dimethylamino-(3-fluorophenyl)-methyl]-cyclohexyl}-acetaldehyde] has an inhibition at 10 µM [1] of 94% and an inhibition at 10 µM [2] of 96%.

In the case of `CN(C)C(c1ccccc1)C1CCC(CN)CC1` (stereo not drawn) [compound 30, [(4-aminomethyl-cyclohexyl)-phenyl-methyl]-dimethylamine], the inhibition at 10 µM [1] is reported as 89%, the inhibition at 10 µM [2] is reported as 89% and the inhibition at 1 µM [3, 4] is reported as 94%. For the same molecule, the Ki [3] was 210 nM.

With `CN(C)C(c1ccc(Cl)cc1)C1CCC(CCN)CC1` (stereo not drawn) [compound 66, 2-{4-[dimethylamino-(4-chlorophenyl)-methyl]-cyclohexyl}-ethylamine] the inhibition at 10 µM [1] was 96%, the inhibition at 10 µM [2] was 96% and the inhibition at 1 µM [3, 4] was 62%.

With `COc1ccc(CNC2CCC(C(c3ccccc3)N(C)C)CC2)cc1` (stereo not drawn) [compound 90, 4-((dimethylamino)(phenyl)methyl)-N-(4-methoxybenzyl)cyclohexanamine dihydrochloride] the inhibition at 10 µM [1] was 87%, the inhibition at 10 µM [2] was 98% and the inhibition at 1 µM [3, 4] was 94%. For the same molecule, the Ki [3] was 45 nM.

Work on `CN(C)C(CCc1ccccc1)C1CCC(N)CC1` (stereo not drawn) [compound 27, 4-(1-dimethylamino-3-phenyl-propyl)-cyclohexylamine] yielded an inhibition at 10 µM [1] of 78% and an inhibition at 10 µM [2] of 95%.

In the case of `CCOC(=O)C=CC1CCC(C(c2cccc(F)c2)N(C)C)CC1` (stereo not drawn) [compound 138, 3-{4-[dimethylamino-(3-fluorophenyl)-methyl]-cyclohexyl}-acrylic acid ethyl ester], the Ki [1] is reported as 310 nM, the inhibition at 10 µM [1] is reported as 84% and the Ki [2] is reported as 620 nM. For the same molecule, the inhibition at 10 µM [2] was 96%, the inhibition at 1 µM [3, 4] was 73% and the Ki [3] was 92 nM.

Molecule `CN(C)C(c1ccccc1)C1CCC(NS(=O)(=O)c2ccccc2[N+](=O)[O-])CC1` (stereo not drawn) [compound 109, N-(4-((dimethylamino)(phenyl)methyl)cyclohexyl)-2-nitrobenzene-sulfonamide hydrochloride] has an inhibition at 10 µM [1] of 93%, an inhibition at 10 µM [2] of 76% and an inhibition at 1 µM ([3]; 1 μM, sulfonamides (Table 17)) of 92%. For the same molecule, the Ki ([3]; sulfonamides (Table 17)) was 77 nM.

`COc1cccc(NC(=O)CC2CCC(C(Cc3ccccc3)N3CCCC3)CC2)c1` (stereo not drawn) [compound 492, N-(3-methoxyphenyl)-2-(4-(2-phenyl-1-(pyrrolidin-1-yl)ethyl)cyclohexyl)-acetamide] showed an inhibition at 10 µM [1] of 3% and an inhibition at 10 µM [2] of 54%.

`CN(C)C(c1ccccc1)C1CCC(NC(=O)Nc2cccc(Br)c2)CC1` (stereo not drawn) [compound 77, 1-(3-bromophenyl)-3-(4-((dimethylamino)(phenyl)methyl)cyclohexyl)urea hydrochloride] gave an inhibition at 10 µM [1] of 84%, an inhibition at 10 µM [2] of 93% and an inhibition at 1 µM [3, 4] of 88%. It also gave a Ki [3] of 78 nM.

For `CN(C)C(c1ccccc1)C1CCC(N)CC1` (stereo not drawn) [compound 17, 4-(dimethylamino-phenyl-methyl)-cyclohexylamine], the Ki ([1]; rat brain synaptosomes, read-out: Serotonin reuptake, Ki) was 860 nM, the inhibition at 10 µM [1] was 86% and the Ki ([2]; rat brain synaptosomes (hypothalamus), read-out: NA reuptake, Ki) was 870 nM. For the same molecule, the inhibition at 10 µM [2] was 92%, the inhibition at 1 µM [3, 4] was 83% and the Ki ([3]; [3H]-naloxone, human μ-opiate receptor membranes) was 440 nM.

`CN(C)C(c1ccc(F)cc1)C1CCC(CN)CC1` (stereo not drawn) [compound 33, [(4-aminomethyl-cyclohexyl)-(4-fluorophenyl)-methyl]-dimethylamine] showed an inhibition at 10 µM [1] of 95% and an inhibition at 10 µM [2] of 94%.

`CCOC(=O)CCC1CCC(C(c2ccc(F)cc2)N(C)C)CC1` (stereo not drawn) [compound 136, 3-{4-[dimethylamino-(4-fluorophenyl)-methyl]-cyclohexyl}-propionic acid ethyl ester] gave a Ki [1] of 83 nM, an inhibition at 10 µM [1] of 86% and a Ki [2] of 580 nM. The inhibition at 10 µM [2] was 89%, the inhibition at 1 µM [3, 4] was 73% and the Ki [3] was 230 nM.

`Cc1ccc(C(C2CCC(=CC(=O)N(C)Cc3ccccc3)CC2)N2CCCCC2)cc1` (stereo not drawn) [compound 496, N-benzyl-N-methyl-2-(4-(piperidin-1-yl(p-tolyl)methyl)cyclohexylidene)-acetamide] showed an inhibition at 10 µM [1] of 18% and an inhibition at 10 µM [2] of 26%.

Work on `CN(C)C(c1cccc(F)c1)C1CCC(NC(=O)c2nc(CC3CC3)no2)CC1` (stereo not drawn) [compound 500, 3-cyclopropylmethyl-[1,2,4]oxadiazole-5-carboxylic acid {4-[dimethylamino-(3-fluoro-phenyl)-methyl]-cyclohexyl}-amide] yielded an inhibition at 10 µM [2] of 101%.

`Cc1noc(C(=O)NCCC2CCC(C(c3ccccc3)N(C)C)CC2)n1` (stereo not drawn) [compound 498, 3-methyl-[1,2,4]oxadiazole-5-carboxylic acid {2-[4-(dimethylamino-phenyl-methyl)-cyclohexyl]-ethyl}-amide] showed an inhibition at 10 µM [2] of 99%.

`CCOC(=O)C=CC1CCC(C(CCc2ccccc2)N(C)C)CC1` (stereo not drawn) [compound 141, 3-[4-(1-dimethylamino-3-phenyl-propyl)-cyclohexyl]-acrylic acid ethyl ester] showed an inhibition at 10 µM [1] of 83% and an inhibition at 10 µM [2] of 98%.

For `Cc1ccc(C(C2CCC(=CC(=O)NCCc3ccccc3)CC2)N2CCCCC2)cc1` (stereo not drawn) [compound 494, N-phenethyl-2-(4-(piperidin-1-yl(p-tolyl)methyl)cyclohexylidene)acetamide], the inhibition at 10 µM [1] was 40% and the inhibition at 10 µM [2] was 81%.

`COCc1noc(C(=O)NCCC2CCC(C(CCc3ccccc3)N(C)C)CC2)n1` (stereo not drawn) [compound 501, 3-methoxymethyl-[1,2,4]oxadiazole-5-carboxylic acid {2-[4-(1-dimethylamino-3-phenyl-propyl)-cyclohexyl]-ethyl}-amide] gave an inhibition at 10 µM [2] of 106%.

`CN(C)C(CCc1ccccc1)C1CCC(CCN)CC1` (stereo not drawn) [compound 72, {1-[4-(2-amino-ethyl)-cyclohexyl]-3-phenyl-propyl}-dimethylamine] was tested, and the inhibition at 10 µM [1] was 79% and the inhibition at 10 µM [2] was 91%.

`CN(C)C(CCc1ccccc1)C1CCC(C=O)CC1` (stereo not drawn) [compound 43, 4-(1-Dimethylamino-3-phenyl-propyl)-cyclohexane-carbaldehyde] gave an inhibition at 10 µM [1] of 80% and an inhibition at 10 µM [2] of 98%.

`O=C(C=C1CCC(C(Cc2ccccc2)N2CCCC2)CC1)NCc1ccccn1` (stereo not drawn) [compound 495, 2-(4-(2-phenyl-1-(pyrrolidin-1-yl)ethyl)cyclohexylidene)-N-(pyridin-2-ylmethyl)acetamide] was tested, and the inhibition at 10 µM [1] was 7% and the inhibition at 10 µM [2] was 16%.

`CN(C)C(c1ccc(Cl)cc1)C1CCC(CC=O)CC1` (stereo not drawn) [compound 55, {4-[(4-Chlorophenyl)-dimethylamino-methyl]-cyclohexyl}-acetaldehyde] gave an inhibition at 10 µM [1] of 88% and an inhibition at 10 µM [2] of 95%.

For `COc1ccc(NC(=O)C=C2CCC(C(c3ccc(C)cc3)N3CCCCC3)CC2)cc1` (stereo not drawn) [compound 493, N-(4-methoxyphenyl)-2-(4-(piperidin-1-yl(p-tolyl)methyl)cyclohexylidene)-acetamide], the inhibition at 10 µM [1] was 38% and the inhibition at 10 µM [2] was 27%.

With `CN(C)C(CCc1ccccc1)C1CCC(CC=O)CC1` (stereo not drawn) [compound 70, [4-(1-Dimethylamino-3-phenyl-propyl)-cyclohexyl]-acetaldehyde] the inhibition at 10 µM [1] was 70% and the inhibition at 10 µM [2] was 93%.

Molecule `CN(C)C(c1ccccc1)C1CCC(NC(=O)c2nc(-c3cccs3)no2)CC1` (stereo not drawn) [compound 497, 3-thiophen-2-yl-[1,2,4]oxadiazole-5-carboxylic acid [4-(dimethylamino-phenyl-methyl)-cyclohexyl]-amide] has an inhibition at 10 µM [2] of 101%.

With `CN(C)C(c1ccc(Cl)cc1)C1CCC(C=O)CC1` (stereo not drawn) [compound 37, 4-[(4-Chloro-phenyl)-dimethylamino-methyl]-cyclohexane-carbaldehyde] the inhibition at 10 µM [1] was 75% and the inhibition at 10 µM [2] was 97%.

With `CCOC(=O)CCC1CCC(C(CCc2ccccc2)N(C)C)CC1` (stereo not drawn) [compound 142, 3-[4-(1-dimethylamino-3-phenyl-propyl)-cyclohexyl]-propionic acid ethyl ester] the inhibition at 10 µM [1] was 84% and the inhibition at 10 µM [2] was 99%.

Molecule `CN(C)C(c1cccs1)C1CCC(C=O)CC1` (stereo not drawn) [compound 40, 4-(Dimethylamino-thiophen-2-yl-methyl)-cyclohexanecarbaldehyde] has an inhibition at 10 µM [1] of 78% and an inhibition at 10 µM [2] of 77%.

`CN(C)C(c1ccccc1)C1CCC(O)(Cc2ccccc2)CC1` (stereo not drawn) [compound 147, 1-benzyl-4-((dimethylamino)(phenyl)methyl)cyclohexanol hydrochloride] showed an inhibition at 10 µM [2] of 12%.

`CN(C)C(c1cccc(F)c1)C1CCC(NC(=O)c2nc(-c3ccccc3)no2)CC1` (stereo not drawn) [compound 499, 3-phenyl-[1,2,4]oxadiazole-5-carboxylic acid {4-[dimethylamino-(3-fluoro-phenyl)-methyl]-cyclohexyl}-amide] showed an inhibition at 10 µM [2] of 103%.

Molecule `CN(C)C(c1ccc(F)cc1)C1CCC(N)CC1` (stereo not drawn) [compound 19, 4-[dimethylamino-(4-fluorophenyl)-methyl]-cyclohexylamine] has an inhibition at 10 µM [1] of 87% and an inhibition at 10 µM [2] of 93%.

In the case of `CN(C)C(CCc1ccccc1)C1CCC(CN)CC1` (stereo not drawn) [compound 45, [1-(4-aminomethyl-cyclohexyl)-3-phenyl-propyl]-dimethylamine], the inhibition at 10 µM [1] is reported as 90% and the inhibition at 10 µM [2] is reported as 96%.
